Tested on: transgenic Arabidopsis thaliana T1 plants
Test: Detection of the herbicide tolerance of the transgenic Arabidopsis thaliana plants
Assay type: in vivo
Conditions: for The grade of pesticide damage/plant: 0 / The grade of pesticide damage/plant: 1 / The grade of pesticide damage/plant: 2 / The grade of pesticide damage/plant: 3: 7 DAT
From the text: The transformed Arabidopsis thaliana T1 plants were initially selected using glufosinate herbicide. The Arabidopsis thaliana T1 plants (PPOA-01) into which the PPOA-01 nucleotide sequence was introduced, the Arabidopsis thaliana T1 plants (PPOB-01) into which the PPOB-01 nucleotide sequence was introduced, the Arabidopsis thaliana T1 plants (PPOC-01) into which the PPOC-01 nucleotide sequence was introduced, the Arabidopsis thaliana T1 plants (PPOD-01) into which the PPOD-01 nucleotide sequence was introduced, the Arabidopsis thaliana T1 plants (PPOE-01) into which the PPOE-01 nucleotide sequence was introduced, the Arabidopsis thaliana T1 plants (PPOF-01) into which the PPOF-01 nucleotide sequence was introduced, the Arabidopsis thaliana T1 plants (PPO-AP-01) into which the PPO-AP-01 nucleotide sequence was introduced, and the Arabidopsis thaliana T1 plants (control vector) into which the control vector was introduced, the wild-type Arabidopsis thaliana plants (CK) (with 24 plants being included in each genotype) (18 days after sowing) were sprayed with saflufenacil at three concentrations (25 g ai/ha (one-fold field concentration, 1×), 100 g ai/ha (four-fold field concentration, 4×), and 0 g ai/ha (water, 0×)), oxyfluorfen at three concentrations (180 g ai/ha (one-fold field concentration, 1×), 720 g ai/ha (four-fold field concentration, 4×), and 0 g ai/ha (water, 0×)), and flumioxazin at three concentrations (60 g ai/ha (one-fold field concentration, 1×), 240 g ai/ha (four-fold field concentration, 4×), and 0 g ai/ha (water, 0×) to determine the tolerance of Arabidopsis thaliana to the herbicides. After 7 days of spraying (7 DAT), the damage level of each plant caused by the herbicide was evaluated according to the average of the damage levels (%) of plants (the average of the damage levels (%) of plants=the injured leaf area/the total leaf area×100%), i.e., the grade of pesticide damage: grade 0 means that the growth status of plants is essentially consistent with those sprayed with the blank solvent (water); grade 1 means that the average of the damage levels of plants is less than 10%; grade 2 means that the average of the damage levels of plants is greater than 10%; and grade 3 means that the average of the damage levels of plants is 100%. The plants having a growth status falling within grades 0 and 1 are classified as highly resistant plants; those having a growth status falling within grade 2 are classified as poorly resistant plants; and those having a growth status falling within grade 3 are classified as non-resistant plants.

[1] = genotype Control vector, 180 g ai/ha
[2] = genotype Control vector, 720 g ai/ha
[3] = genotype PPO-AP-01, 180 g ai/ha
[4] = genotype PPO-AP-01, 720 g ai/ha

Question: How did the “effective dose distinguishing sensitive plants from plants having an average level of resistance” value (Arabidopsis thaliana) turn out when `CCOc1cc(Oc2ccc(C(F)(F)F)cc2Cl)ccc1[N+](=O)[O-]` [oxyfluorfen, 2-chloro-1-(3-ethoxy-4-nitrophenoxy)-4-trifluoromethylbenzene] was run?
Answer: 180 g ai/ha

Question: What about the “The grade of pesticide damage/plant: 0” value (genotype CK, 180 g ai/ha) of the same compound?
Answer: 0 plant

Question: And the “The grade of pesticide damage/plant: 1” value (genotype CK, 180 g ai/ha)?
Answer: 0 plant

Question: What about the “The grade of pesticide damage/plant: 2” value (genotype CK, 180 g ai/ha) of the same compound?
Answer: 0 plant

Question: And the “The grade of pesticide damage/plant: 3” value (genotype CK, 180 g ai/ha)?
Answer: 24 plant

Question: What about the “The grade of pesticide damage/plant: 0” value (genotype CK, 720 g ai/ha) of the same compound?
Answer: 0 plant

Question: And the “The grade of pesticide damage/plant: 1” value (genotype CK, 720 g ai/ha)?
Answer: 0 plant

Question: What about the “The grade of pesticide damage/plant: 2” value (genotype CK, 720 g ai/ha) of the same compound?
Answer: 0 plant

Question: And the “The grade of pesticide damage/plant: 3” value (genotype CK, 720 g ai/ha)?
Answer: 24 plant

Question: What about the “The grade of pesticide damage/plant: 0” value [1] of the same compound?
Answer: 0 plant

Question: And the “The grade of pesticide damage/plant: 1” value [1]?
Answer: 0 plant

Question: And the “The grade of pesticide damage/plant: 2” value [1]?
Answer: 0 plant

Question: And the “The grade of pesticide damage/plant: 3” value [1]?
Answer: 24 plant

Question: And the “The grade of pesticide damage/plant: 0” value [2]?
Answer: 0 plant

Question: And the “The grade of pesticide damage/plant: 1” value [2]?
Answer: 0 plant

Question: And the “The grade of pesticide damage/plant: 2” value [2]?
Answer: 0 plant

Question: What about the “The grade of pesticide damage/plant: 3” value [2] of the same compound?
Answer: 24 plant

Question: And the “The grade of pesticide damage/plant: 0” value [3]?
Answer: 0 plant

Question: What about the “The grade of pesticide damage/plant: 1” value [3] of the same compound?
Answer: 0 plant

Question: What about the “The grade of pesticide damage/plant: 2” value [3] of the same compound?
Answer: 0 plant

Question: And the “The grade of pesticide damage/plant: 3” value [3]?
Answer: 24 plant

Question: And the “The grade of pesticide damage/plant: 0” value [4]?
Answer: 0 plant

Question: What about the “The grade of pesticide damage/plant: 1” value [4] of the same compound?
Answer: 0 plant

Question: What about the “The grade of pesticide damage/plant: 2” value [4] of the same compound?
Answer: 0 plant

Question: What about the “The grade of pesticide damage/plant: 3” value [4] of the same compound?
Answer: 24 plant

Question: And the “tolerance to the herbicide (in words)” value (genotype PPO-AP-01, at different concentrations)?
Answer: no tolerance

Question: What about the “The grade of pesticide damage/plant: 0” value (genotype PPOA-01, 180 g ai/ha) of the same compound?
Answer: 24 plant

Question: And the “The grade of pesticide damage/plant: 1” value (genotype PPOA-01, 180 g ai/ha)?
Answer: 0 plant

Question: What about the “The grade of pesticide damage/plant: 2” value (genotype PPOA-01, 180 g ai/ha) of the same compound?
Answer: 0 plant

Question: What about the “The grade of pesticide damage/plant: 3” value (genotype PPOA-01, 180 g ai/ha) of the same compound?
Answer: 0 plant

Question: What about the “The grade of pesticide damage/plant: 0” value (genotype PPOA-01, 720 g ai/ha) of the same compound?
Answer: 24 plant

Question: And the “The grade of pesticide damage/plant: 1” value (genotype PPOA-01, 720 g ai/ha)?
Answer: 0 plant

Question: What about the “The grade of pesticide damage/plant: 2” value (genotype PPOA-01, 720 g ai/ha) of the same compound?
Answer: 0 plant

Question: And the “The grade of pesticide damage/plant: 3” value (genotype PPOA-01, 720 g ai/ha)?
Answer: 0 plant

Question: And the “The grade of pesticide damage/plant: 0” value (genotype PPOB-01, 180 g ai/ha)?
Answer: 24 plant

Question: And the “The grade of pesticide damage/plant: 1” value (genotype PPOB-01, 180 g ai/ha)?
Answer: 0 plant

Question: And the “The grade of pesticide damage/plant: 2” value (genotype PPOB-01, 180 g ai/ha)?
Answer: 0 plant

Question: What about the “The grade of pesticide damage/plant: 3” value (genotype PPOB-01, 180 g ai/ha) of the same compound?
Answer: 0 plant

Question: What about the “The grade of pesticide damage/plant: 0” value (genotype PPOB-01, 720 g ai/ha) of the same compound?
Answer: 24 plant

Question: What about the “The grade of pesticide damage/plant: 1” value (genotype PPOB-01, 720 g ai/ha) of the same compound?
Answer: 0 plant

Question: And the “The grade of pesticide damage/plant: 2” value (genotype PPOB-01, 720 g ai/ha)?
Answer: 0 plant

Question: What about the “The grade of pesticide damage/plant: 3” value (genotype PPOB-01, 720 g ai/ha) of the same compound?
Answer: 0 plant

Question: What about the “The grade of pesticide damage/plant: 0” value (genotype PPOC-01, 180 g ai/ha) of the same compound?
Answer: 24 plant

Question: What about the “The grade of pesticide damage/plant: 1” value (genotype PPOC-01, 180 g ai/ha) of the same compound?
Answer: 0 plant

Question: And the “The grade of pesticide damage/plant: 2” value (genotype PPOC-01, 180 g ai/ha)?
Answer: 0 plant

Question: What about the “The grade of pesticide damage/plant: 3” value (genotype PPOC-01, 180 g ai/ha) of the same compound?
Answer: 0 plant

Question: And the “The grade of pesticide damage/plant: 0” value (genotype PPOC-01, 720 g ai/ha)?
Answer: 24 plant

Question: What about the “The grade of pesticide damage/plant: 1” value (genotype PPOC-01, 720 g ai/ha) of the same compound?
Answer: 0 plant

Question: What about the “The grade of pesticide damage/plant: 2” value (genotype PPOC-01, 720 g ai/ha) of the same compound?
Answer: 0 plant

Question: And the “The grade of pesticide damage/plant: 3” value (genotype PPOC-01, 720 g ai/ha)?
Answer: 0 plant

Question: And the “The grade of pesticide damage/plant: 0” value (genotype PPOD-01, 180 g ai/ha)?
Answer: 24 plant

Question: What about the “The grade of pesticide damage/plant: 1” value (genotype PPOD-01, 180 g ai/ha) of the same compound?
Answer: 0 plant

Question: What about the “The grade of pesticide damage/plant: 2” value (genotype PPOD-01, 180 g ai/ha) of the same compound?
Answer: 0 plant

Question: What about the “The grade of pesticide damage/plant: 3” value (genotype PPOD-01, 180 g ai/ha) of the same compound?
Answer: 0 plant

Question: What about the “The grade of pesticide damage/plant: 0” value (genotype PPOD-01, 720 g ai/ha) of the same compound?
Answer: 24 plant

Question: What about the “The grade of pesticide damage/plant: 1” value (genotype PPOD-01, 720 g ai/ha) of the same compound?
Answer: 0 plant

Question: What about the “The grade of pesticide damage/plant: 2” value (genotype PPOD-01, 720 g ai/ha) of the same compound?
Answer: 0 plant

Question: What about the “The grade of pesticide damage/plant: 3” value (genotype PPOD-01, 720 g ai/ha) of the same compound?
Answer: 0 plant

Question: And the “The grade of pesticide damage/plant: 0” value (genotype PPOE-01, 180 g ai/ha)?
Answer: 22 plant

Question: And the “The grade of pesticide damage/plant: 1” value (genotype PPOE-01, 180 g ai/ha)?
Answer: 2 plant

Question: And the “The grade of pesticide damage/plant: 2” value (genotype PPOE-01, 180 g ai/ha)?
Answer: 0 plant

Question: And the “The grade of pesticide damage/plant: 3” value (genotype PPOE-01, 180 g ai/ha)?
Answer: 0 plant

Question: What about the “The grade of pesticide damage/plant: 0” value (genotype PPOE-01, 720 g ai/ha) of the same compound?
Answer: 15 plant

Question: What about the “The grade of pesticide damage/plant: 1” value (genotype PPOE-01, 720 g ai/ha) of the same compound?
Answer: 9 plant

Question: What about the “The grade of pesticide damage/plant: 2” value (genotype PPOE-01, 720 g ai/ha) of the same compound?
Answer: 0 plant

Question: And the “The grade of pesticide damage/plant: 3” value (genotype PPOE-01, 720 g ai/ha)?
Answer: 0 plant

Question: What about the “The grade of pesticide damage/plant: 0” value (genotype PPOF-01, 180 g ai/ha) of the same compound?
Answer: 24 plant

Question: And the “The grade of pesticide damage/plant: 1” value (genotype PPOF-01, 180 g ai/ha)?
Answer: 0 plant

Question: What about the “The grade of pesticide damage/plant: 2” value (genotype PPOF-01, 180 g ai/ha) of the same compound?
Answer: 0 plant

Question: What about the “The grade of pesticide damage/plant: 3” value (genotype PPOF-01, 180 g ai/ha) of the same compound?
Answer: 0 plant

Question: What about the “The grade of pesticide damage/plant: 0” value (genotype PPOF-01, 720 g ai/ha) of the same compound?
Answer: 24 plant

Question: What about the “The grade of pesticide damage/plant: 1” value (genotype PPOF-01, 720 g ai/ha) of the same compound?
Answer: 0 plant

Question: What about the “The grade of pesticide damage/plant: 2” value (genotype PPOF-01, 720 g ai/ha) of the same compound?
Answer: 0 plant

Question: What about the “The grade of pesticide damage/plant: 3” value (genotype PPOF-01, 720 g ai/ha) of the same compound?
Answer: 0 plant

Question: What about the “tolerance to the herbicide (in words)” value (genotypes PPOA-01 to PPOF-01, at different concentrations, compared with the control vector and CK) of the same compound?
Answer: high-resistant tolerance

Source: US20250275540A1, “USE OF PROTOPORPHYRINOGEN OXIDASE” (BEIJING DABEINONG BIOTECHNOLOGY CO., LTD., priority 2022, published 2025)
